Series [1] relates to uterine contraction (uterine EMG activity). Briefly: In vivo uterine EMG activity after oxytocin delivery in post-partum ewes (Example 5). On the set-up: species or system sheep. The following applies: for delay from oxytocin administration to uterine contractile response (first EMG burst): post-partum ewes, n=5, average. The text has this: On day 135 gestational age, pregnant ewes (n=5) were anaesthetised with thiopentone in preparation for surgery. Isuflorane (2.5% in oxygen) was used to maintain anaesthesia and depomycin, procaine penicillin and dihydrostreptomycin were given for pain relief and to reduce the risk of infection. Each ewe was shaved and a 10 cm incision was made in the abdominal skin at the midline below the navel to expose the uterine wall, with care taken to avoid large blood vessels.
Three sterile stainless steel wires for measuring electromyographical (EMG) activity (0.07 mm diameter, inside a 2 mm catheter) were embedded in the smooth muscle layer of the myometrium surrounding the womb and held there by two stitches. The electrodes were passed through a catheter and out of the ewe via a small incision (2 cm) through the right flank. A catheter was inserted in the right jugular to allow for blood samples and to induce labour. Ewes were returned to metabolic cages and given 3-5 days to recover from surgery.
Labour was induced with two 5 ml intravenous injections of dexamethasone (consisting of 5 mg of dexamethasone phosphate and 10 mg of dexamethasone phenylpropionate) 24 hours apart. Labour occurred 54±2 hours after the first dexamethasone injection.
Oxytocin administrations, as detailed above, were performed within 15 hours of delivery. Each sheep received an intra-tracheal dose of dry powder oxytocin formulation, an intra-tracheal instillation of oxytocin in solution and an intramuscular injection of oxytocin. There was at least a one and a half hour washout period between each treatment.
For intra-tracheal administration, an endoscope was passed through the nasal passage into the trachea and positioned near the first bronchial bifurcation, where either a 1 mL aliquot of oxytocin in solution (10 IU) was released or 10 mg (average) of dry powder was delivered through a modified PennCentury powder delivery device.
The dry powder formulation comprised a spray dried composition, as described in example 1. This powder contained 13 units of oxytocin per mg by mass, co-spray dried with equal proportions by mass of mannitol, glycine and leucine.
During this procedure, bronchoscope video images were captured using a Linvatec IM3301 Pal Video Camera attached to an endoscope (Pentax FG-16X), which was saved as a digital file onto a computer using Video Capture Software.
A cyberamp 380 in conjunction with MACLAB hardware (400 Hz Sample rate) and Chart 4 software (10V Input range) was used to display and record action potential originating from smooth muscle cells within the uterus. The cyberamp 380 used the AI401probe with positive input set at AC and negative input set at Ground. The AC cut off was 10 Hz and the prefilter gain set at 100 mV. The low pass filter was set at 300 Hz, the notch filter set to off, the output gain set to 5 and the total gain left at 500. Two way repeated measure ANOVA was performed to determine the statistical significance of our data.

Series [2] is described as follows: Oxytocin stability: LC/MS assay content recovered after TSI experiments. Type of series: physicochemical. The following applies: all TSI stages, capsules and inhalation devices, after spray drying at 70° C. outlet. As to the method: All five capsules were activated into the same TSI. The used capsules and the inhalers were then washed with Milli-Q water into a 100 mL volumetric flask and made up to volume. This was called the ‘residual’ stage. The parts that made up Stage 1 (parts A, B, C and D) were washed into a 200 mL volumetric flask and the parts that made up Stage 2 (parts E, F, G and H) were washed into a 50 mL volumetric flask with Milli-Q water and called ‘stage 1’ and ‘stage 2’ respectively. The amounts of oxytocin in each stage of the TSI were determined by LC/MS assay. The fine particle fraction (FPF) was calculated as the amount of powder that had reached stage 2 of the TSI apparatus divided by total amount of drug that was assayed. This test was the most important measure as it can determine whether a powder containing oxytocin can be formulated with suitable aerosol deposition, and consequent absorption from the lung.
Peptides can potentially be denatured due to extreme heat. From the tests that were conducted in this study, the only indication as to oxytocin stability was the LC/MS assay content following the TSI experiments.

[3] abbreviates: pulmonary versus IM delivery and post-partum activity.

In the case of `CC[C@H](C)[C@@H]1NC(=O)[C@H](Cc2ccc(O)cc2)NC(=O)[C@@H](N)CSSC[C@@H](C(=O)N2CCC[C@H]2C(=O)N[C@@H](CC(C)C)C(=O)NCC(N)=O)NC(=O)[C@H](CC(N)=O)NC(=O)[C@H](CCC(N)=O)NC1=O` [oxytocin], the “total duration of EMG activity” value in series [1] (IM compared to airway delivery and normal post-partum activity) is given as “significantly longer”. Also, the “delay from oxytocin administration to uterine contractile response (first EMG burst)” value in series [1] (IM delivery) is listed as “approximately 250 seconds”. Besides, in series [1] (pulmonary (intra-tracheal) delivery), the “delay from oxytocin administration to uterine contractile response (first EMG burst)” value is recorded as “faster time of onset”. Moreover, in series [1] (setting [3]), the “length of the initial burst of EMG activity” value is recorded as “No differences” and the “number of bursts over the first 30 minutes following the initial burst” value is given as “nor was there a difference”. Besides, in series [2], the “oxytocin recovered of the initial capsule's dose” value is recorded as 90.23±5.41%.

The record behind these values is patent publication US12186361B2, “Method and formulation for inhalation” (Monash University, priority 2011, dated 2025).
